Assay results as given in patent US20030068615A1, “Polypeptides that bind HIV gp120 and related nucleic acids, antibodies, compositions, and methods of use” (priority 1999, published 2003).
Like-named read-outs stand apart in the source and are kept apart here.

Target: HIV-1LAI envelope gp120 (Human immunodeficiency virus type 1 group M subtype B, UniProt P03377)
Assay type: binding
Details: for Counts per 20′ Average-background: CCR5 18-mer scan, radiolabeled HIV-1LAI gp120; for number of radioactive decays (counts) counted: human CD4 21-mer scan, empty control 2075
[1] = CXCR4 18-mer scan, background subtracted, empty control 0
[2] = CXCR4 18-mer scan, empty control 412
[3] = STRL33 18-mer scan, background subtracted, first of two count columns
[4] = STRL33 18-mer scan, background subtracted, second of two count columns
[5] = Panel E, 9-mers and 12-mers of CD4, empty control 571
[6] = Panel C, 15-mers and 18-mers of CD4, empty control 556
[7] = Panel A, 21-mers of CD4, empty control 515 and 617
[8] = Panel D, 9-mers and 12-mers of CD4, empty control […]
[9] = Panel B, 15-mers and 18-mers of CD4, empty control 575

In the case of “ILPGIVILSCYCIIISKL [CXCR4 segment 209-226]”, the “radioactive counts recorded in twenty minutes” value (“radioactive counts recorded” below) [1] is reported as 192 counts and the “radioactive counts recorded” value [2] is reported as 604 counts.
With IPDFIFANVSEADDRYIC the “radioactive counts recorded” value [1] was 438 counts and the “radioactive counts recorded” value [2] was 850 counts.
In the case of IRSTHWEYYAMTSFHYTI, the “radioactive counts recorded” value [3] is reported as 1571.5 counts and the “radioactive counts recorded” value [4] is reported as 1807.5 counts.
“ITLPFWAVDAVANWYFGN [CXCR4 segment 89-106]” was tested, and the “radioactive counts recorded” value [1] was 130 counts and the “radioactive counts recorded” value [2] was 542 counts.
With “IVGNGLVILVMGYQKKLR [CXCR4 segment 53-70]” the “radioactive counts recorded” value [1] was 238 counts and the “radioactive counts recorded” value [2] was 650 counts.
With IVILSCYCIIISKLSHSK the “radioactive counts recorded” value [1] was 277 counts and the “radioactive counts recorded” value [2] was 689 counts.
For IVLLLNTFQEFFGLNNCS, the “Counts per 20′ Average-background” value (background subtracted) was 2134 counts per 20′.
IVVLAFQKA was tested, and the “COUNTS of radiolabeled gp120 retained” value [5] was 602 counts.
With IVVLAFQKASSI the “COUNTS of radiolabeled gp120 retained” value [5] was 548 counts.
In the case of IVVLAFQKASSIVYK, the “COUNTS of radiolabeled gp120 retained” value [6] is reported as 783 counts.
With IVVLAFQKASSIVYKKEG the “COUNTS of radiolabeled gp120 retained” value [6] was 531 counts.
With IVVLAFQKASSIVYKKEGEQV the “COUNTS of radiolabeled gp120 retained” value [7] was 646 counts.
IVVVKATKAYNQQAKRMT was tested, and the “radioactive counts recorded” value [3] was 166.5 counts and the “radioactive counts recorded” value [4] was 43.5 counts.
In the case of IVYKKEGEQ, the “COUNTS of radiolabeled gp120 retained” value [5] is reported as 534 counts.
IVYKKEGEQVEF was tested, and the “COUNTS of radiolabeled gp120 retained” value [5] was 533 counts.
IVYKKEGEQVEFSFP was tested, and the “COUNTS of radiolabeled gp120 retained” value [6] was 615 counts.
With IVYKKEGEQVEFSFPLAF the “COUNTS of radiolabeled gp120 retained” value [6] was 5382 counts.
For IVYKKEGEQVEFSFPLAFTVE, the “COUNTS of radiolabeled gp120 retained” value [7] was 15620 counts.
For IYDINYYTSEPCQKINVK [CCR5 segment 9-26], the “Counts per 20′ Average-background” value (background subtracted) was 228 counts per 20′.
KASSIVYKK was tested, and the “COUNTS of radiolabeled gp120 retained” value [5] was 498 counts.
In the case of KASSIVYKKEGE, the “COUNTS of radiolabeled gp120 retained” value [5] is reported as 559 counts.
With KASSIVYKKEGEQVE the “COUNTS of radiolabeled gp120 retained” value [6] was 563 counts.
With KASSIVYKKEGEQVEFSF the “COUNTS of radiolabeled gp120 retained” value [6] was 536 counts.
“KASSIVYKKEGEQVEFSFPLA [human CD4 206-226]” was tested, and the “COUNTS of radiolabeled gp120 retained” value [7] was 30873 counts and the “number of radioactive decays (counts) counted” value (from here on “number of radioactive decays”) was 14347 counts.
In the case of KATKAYNQQAKRMTWGKV, the “radioactive counts recorded” value [3] is reported as 701.5 counts and the “radioactive counts recorded” value [4] is reported as 568.5 counts.
“KAVWVLNPEAGMWQCLLSDSG [human CD4 356-376]” was tested, and the “number of radioactive decays” value was 3133 counts.
For KEEVQLLVF, the “COUNTS of radiolabeled gp120 retained” value [8] was 1273 counts.
In the case of KEEVQLLVFGLT, the “COUNTS of radiolabeled gp120 retained” value [8] is reported as 1774 counts.
KEEVQLLVFGLTANS was tested, and the “COUNTS of radiolabeled gp120 retained” value [9] was 3485 counts.
With KEEVQLLVFGLTANSDTH the “COUNTS of radiolabeled gp120 retained” value [9] was 1271 counts.
KEGEQVEFS was tested, and the “COUNTS of radiolabeled gp120 retained” value [5] was 595 counts.
KEGEQVEFSFPL was tested, and the “COUNTS of radiolabeled gp120 retained” value [5] was 710 counts.
For KEGEQVEFSFPLAFT, the “COUNTS of radiolabeled gp120 retained” value [6] was 3253 counts.
For KEGEQVEFSFPLAFTVEK, the “COUNTS of radiolabeled gp120 retained” value [6] was 3117 counts.
For KEGEQVEFSFPLAFTVEKLTG, the “COUNTS of radiolabeled gp120 retained” value [7] was 972 counts.
With “KEPCFREENANFNKIFLP [CXCR4 segment 25-42]” the “radioactive counts recorded” value [1] was 252 counts and the “radioactive counts recorded” value [2] was 664 counts.
With KIDIVVLAF the “COUNTS of radiolabeled gp120 retained” value [5] was 665 counts.
With KIDIVVLAFQKA the “COUNTS of radiolabeled gp120 retained” value [5] was 689 counts.
KIDIVVLAFQKASSI was tested, and the “COUNTS of radiolabeled gp120 retained” value [6] was 956 counts.
KIDIVVLAFQKASSIVYK was tested, and the “COUNTS of radiolabeled gp120 retained” value [6] was 779 counts.
With KIDIVVLAFQKASSIVYKKEG the “COUNTS of radiolabeled gp120 retained” value [7] was 1394 counts and the “number of radioactive decays” value was 3681 counts.
In the case of KIEDSDTYI, the “COUNTS of radiolabeled gp120 retained” value [8] is reported as 603 counts.
KIEDSDTYICEV was tested, and the “COUNTS of radiolabeled gp120 retained” value [8] was 601 counts.
For KIEDSDTYICEVEDQ, the “COUNTS of radiolabeled gp120 retained” value [9] was 1088 counts.
In the case of KIEDSDTYICEVEDQKEE, the “COUNTS of radiolabeled gp120 retained” value [9] is reported as 858 counts.
KIVILGLVLPLLVMVICY was tested, and the “Counts per 20′ Average-background” value (background subtracted) was 65 counts per 20′.
In the case of KKEGEQVEF, the “COUNTS of radiolabeled gp120 retained” value [5] is reported as 546 counts.
KKEGEQVEFSFP was tested, and the “COUNTS of radiolabeled gp120 retained” value [5] was 598 counts.
KKEGEQVEFSFPLAF was tested, and the “COUNTS of radiolabeled gp120 retained” value [6] was 1921 counts.
In the case of KKEGEQVEFSFPLAFTVE, the “COUNTS of radiolabeled gp120 retained” value [6] is reported as 4683 counts.
